Results published in patent US10364247B2, “Preparation and use of novel protein kinase inhibitors” (Ruijin Hospital Affiliated to Shanghai Jiao Tong University …, priority 2015, dated 2019).

Columns and labels:
Format in all cases: cell-based, murine
BaF3-BCR/ABL = molecular target: T1, BaF3-BCR/ABL (Homo sapiens, UniProt P00519); test: Antiproliferative activity, kinase-dependent Ba/F3 cells (MTT/MTS); conditions: 48 hours, cell viability, read-out: BCR/ABL IC50
T1 construct: fused on or other part: P11274 (Breakpoint cluster region protein)
Method: (§1) Following up on the kinome data, the ability of compounds disclosed in the present invention to inhibit proliferation of cells that are dependent on selected protein kinases was tested. […] In addition, compounds were assayed to measure their capacity to inhibit TIE1, LYN, EML4-ALK, INSR and HCK kinases.
(§2) The murine cell line used is the BaF/3 cell line transformed with BCR/ABL cDNA (BaF/3-p210) or BCR/ABL-T315I mutant (Ba/F3-p210-T315I). These cells are maintained in RPMI/10% fetal calf serum (RPMI/FCS) supplemented with penicillin 50 μg/mL, streptomycin 50 μg/mL and L-glutamine […]. Untransformed BaF/3 cells (Wt-BaF/3) are similarly maintained with the addition of 15% of WEHI conditioned medium as a source of IL3.
(§3) Cells were seeded at a density of 20,000 cells/well into 96-well plates.
(§4) The background control wells to which media with no cells added and the vehicle control wells were included on each plate in triplicate. Cell viability was determined using MTT (Sigma, St. Louis, Mo., USA) and MTS (Promega, Madison, Wis., USA), according to the manufacturer's instructions. Results were analyzed using GraphPad Prism 5.0 (GraphPad Software, San Diego, Calif.) and IC50 values were calculated from cell viability dose-response curves and defined as the concentration of compound needed to reduce cell viability to 50% of a vehicle control (DMSO) (Table 3).

BaF3-BCR/ABL-T315I = molecular target: T2, BaF3-BCR/ABL-T315I (Homo sapiens, UniProt P00519, T315I, cells depend on it); test: as above; conditions: 48 hours, cell viability, read-out: BCR/ABL T315I IC50
T2 construct: fused on or other part: P11274 (Breakpoint cluster region protein)
Method: as §1, §2, §3, §4

BaF3-EML4-ALK = molecular target: T3, BaF3-EML4-ALK (Homo sapiens, UniProt Q9UM73); test: as above; conditions: 48 hours, cell viability, read-out: EML4-ALK IC50
T3 construct: fused on or other part: Q9HC35 (Echinoderm microtubule-associated protein-like 4)
T3 sequence (Q9UM73 whole entry, change not shown, the tested form may be a part): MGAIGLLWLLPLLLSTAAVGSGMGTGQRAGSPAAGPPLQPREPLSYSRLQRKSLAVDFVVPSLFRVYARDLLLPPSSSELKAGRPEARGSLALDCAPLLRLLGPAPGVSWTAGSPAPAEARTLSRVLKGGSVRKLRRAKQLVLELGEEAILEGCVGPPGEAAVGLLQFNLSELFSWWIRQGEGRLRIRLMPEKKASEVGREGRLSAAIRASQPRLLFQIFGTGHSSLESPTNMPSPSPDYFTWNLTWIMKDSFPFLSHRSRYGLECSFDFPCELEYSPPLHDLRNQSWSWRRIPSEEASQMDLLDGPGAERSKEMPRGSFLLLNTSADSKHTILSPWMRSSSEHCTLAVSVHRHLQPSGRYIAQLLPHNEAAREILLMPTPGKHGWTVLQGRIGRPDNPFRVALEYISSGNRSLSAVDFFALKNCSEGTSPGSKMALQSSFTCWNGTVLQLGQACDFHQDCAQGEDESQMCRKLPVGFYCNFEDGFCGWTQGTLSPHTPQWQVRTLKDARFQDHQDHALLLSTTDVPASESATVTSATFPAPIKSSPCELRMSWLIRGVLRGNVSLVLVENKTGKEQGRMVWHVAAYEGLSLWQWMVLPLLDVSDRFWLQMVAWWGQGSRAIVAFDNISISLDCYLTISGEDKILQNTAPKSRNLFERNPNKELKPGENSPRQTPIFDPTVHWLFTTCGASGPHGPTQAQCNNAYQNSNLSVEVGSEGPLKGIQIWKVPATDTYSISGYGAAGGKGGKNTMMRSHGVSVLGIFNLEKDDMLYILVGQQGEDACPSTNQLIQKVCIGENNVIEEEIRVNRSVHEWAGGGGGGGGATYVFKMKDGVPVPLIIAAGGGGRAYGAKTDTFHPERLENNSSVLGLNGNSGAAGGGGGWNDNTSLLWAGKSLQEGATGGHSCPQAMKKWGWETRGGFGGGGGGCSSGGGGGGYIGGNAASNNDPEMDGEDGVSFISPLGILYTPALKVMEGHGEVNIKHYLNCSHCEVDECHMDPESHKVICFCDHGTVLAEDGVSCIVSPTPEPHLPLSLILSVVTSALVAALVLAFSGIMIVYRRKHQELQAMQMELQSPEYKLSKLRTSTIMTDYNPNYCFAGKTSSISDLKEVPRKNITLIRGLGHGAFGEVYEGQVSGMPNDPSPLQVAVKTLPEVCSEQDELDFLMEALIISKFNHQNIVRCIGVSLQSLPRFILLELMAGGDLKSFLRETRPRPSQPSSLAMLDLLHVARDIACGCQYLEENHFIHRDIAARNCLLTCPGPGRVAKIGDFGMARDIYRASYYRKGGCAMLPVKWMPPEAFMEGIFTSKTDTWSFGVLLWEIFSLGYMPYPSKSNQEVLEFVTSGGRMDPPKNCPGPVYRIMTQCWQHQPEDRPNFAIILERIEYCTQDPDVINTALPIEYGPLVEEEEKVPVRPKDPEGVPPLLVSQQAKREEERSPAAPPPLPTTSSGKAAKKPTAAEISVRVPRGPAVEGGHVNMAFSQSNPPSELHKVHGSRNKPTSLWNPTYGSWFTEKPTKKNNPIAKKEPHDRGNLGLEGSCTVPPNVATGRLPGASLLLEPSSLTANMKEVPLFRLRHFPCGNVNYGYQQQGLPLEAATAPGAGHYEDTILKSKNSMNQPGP
Method: as §1, §2, §3, §4
(§5) Cell proliferation assays of compounds of the invention against TIE1, LYN, EML4-ALK, INSR and Hck were conducted using identical methods as described above for BCR/ABL, except that BaF3-TEL-TIE1, BaF3-TEL-LYN, BaF3-EML4-ALK, BaF3-TEL-INSR, and BaF3-TEL-HCK are used instead of BaF3-BCR/ABL (Table 3 and 4).

BaF3-TEL-LYN = molecular target: T4, BaF3-TEL-LYN (Homo sapiens, UniProt P07948); test: as above; conditions: 48 hours, cell viability, read-out: tel-LYN IC50
T4 construct: fused on or other part: P41212 (Transcription factor ETV6)
T4 sequence (P07948 whole entry, change not shown, the tested form may be a part): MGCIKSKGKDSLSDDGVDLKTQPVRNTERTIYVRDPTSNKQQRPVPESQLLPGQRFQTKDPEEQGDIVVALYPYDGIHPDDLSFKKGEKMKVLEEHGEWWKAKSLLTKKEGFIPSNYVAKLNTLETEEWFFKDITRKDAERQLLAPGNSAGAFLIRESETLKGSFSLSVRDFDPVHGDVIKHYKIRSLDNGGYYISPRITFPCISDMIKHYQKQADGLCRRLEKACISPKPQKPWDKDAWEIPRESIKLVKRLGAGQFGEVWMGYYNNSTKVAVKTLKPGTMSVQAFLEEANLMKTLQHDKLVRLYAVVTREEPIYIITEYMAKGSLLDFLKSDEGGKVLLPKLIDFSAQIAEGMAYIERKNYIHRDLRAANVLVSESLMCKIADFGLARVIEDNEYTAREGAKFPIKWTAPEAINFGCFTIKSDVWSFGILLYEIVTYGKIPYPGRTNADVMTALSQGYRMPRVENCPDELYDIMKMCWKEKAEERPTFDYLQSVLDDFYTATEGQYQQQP
Method: as §1, §2, §3, §4, §5

BaF3-TEL-TIE1 = molecular target: T5, BaF3-TEL-TIE1 (Homo sapiens, UniProt P35590); test: as above; conditions: 48 hours, cell viability, read-out: tel-TIE1 IC50
T5 construct: fused on or other part: P41212 (Transcription factor ETV6)
T5 sequence (P35590 whole entry, change not shown, the tested form may be a part): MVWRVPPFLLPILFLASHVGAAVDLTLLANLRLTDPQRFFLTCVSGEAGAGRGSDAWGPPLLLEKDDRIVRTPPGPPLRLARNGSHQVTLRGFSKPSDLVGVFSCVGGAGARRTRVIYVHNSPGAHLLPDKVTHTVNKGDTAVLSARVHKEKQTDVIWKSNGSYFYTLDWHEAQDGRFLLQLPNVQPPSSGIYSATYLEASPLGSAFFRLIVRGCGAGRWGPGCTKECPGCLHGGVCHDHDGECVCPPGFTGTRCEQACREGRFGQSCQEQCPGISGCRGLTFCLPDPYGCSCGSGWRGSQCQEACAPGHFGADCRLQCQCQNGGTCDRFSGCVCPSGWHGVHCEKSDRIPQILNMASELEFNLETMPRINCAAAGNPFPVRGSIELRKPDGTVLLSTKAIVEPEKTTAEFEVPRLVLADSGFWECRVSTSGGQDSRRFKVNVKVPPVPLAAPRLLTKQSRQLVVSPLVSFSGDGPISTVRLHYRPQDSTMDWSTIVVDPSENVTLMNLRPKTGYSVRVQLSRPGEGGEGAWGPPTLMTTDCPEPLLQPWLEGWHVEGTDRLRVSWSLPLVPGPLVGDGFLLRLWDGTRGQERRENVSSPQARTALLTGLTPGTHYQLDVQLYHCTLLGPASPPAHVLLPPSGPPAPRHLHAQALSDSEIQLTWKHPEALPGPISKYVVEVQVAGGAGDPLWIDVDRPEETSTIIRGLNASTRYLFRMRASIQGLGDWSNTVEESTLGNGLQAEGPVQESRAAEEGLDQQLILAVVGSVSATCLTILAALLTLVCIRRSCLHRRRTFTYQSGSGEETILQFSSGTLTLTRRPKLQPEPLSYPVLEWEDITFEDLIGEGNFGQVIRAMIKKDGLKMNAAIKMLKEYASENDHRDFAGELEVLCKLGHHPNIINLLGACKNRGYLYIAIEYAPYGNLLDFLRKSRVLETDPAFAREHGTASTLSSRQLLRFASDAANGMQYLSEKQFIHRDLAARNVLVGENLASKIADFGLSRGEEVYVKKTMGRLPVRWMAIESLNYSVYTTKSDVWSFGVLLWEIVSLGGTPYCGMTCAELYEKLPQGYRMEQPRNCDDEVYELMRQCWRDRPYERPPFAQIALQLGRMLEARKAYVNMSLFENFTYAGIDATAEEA
Method: as §1, §2, §3, §4, §5

BaF3-KRASD12 = test: Oncogenic RAS dependent cell proliferation (CellTiter Glo); conditions: Mus musculus, BaF3-KRASD12 cells, 48 hours, read-out: KRas-BaF3 IC50
Method: (§6) The BaF/3 cell line transformed with oncogenic NRAS or KRAS (BaF/3-NRASD12 or BaF/3-KRASD12) and the parental BaF/3 cells were used to measure the abilities of compounds of the invention to suppress RAS transformation (Table 5). Cells were seeded at a density of 5000 cells/well into 96-well plates. […] The background control wells to which media with no cells added and the vehicle control wells were included on each plate in triplicate. Cell viability was determined using CellTiter Glo Assay (Promega) according to manufacture's instruction with a minor modification of diluting 1 part CellTiter Glo reagent to 4 parts phosphate buffered saline (PBS) before use. The luminescence value was read out by an Envision (PerkinElmer).

BaF3-NRASD12 = test: as above; conditions: Mus musculus, BaF3-NRASD12 cells, 48 hours, read-out: NRas-BaF3 IC50
Method: as §6

Wt-BaF3 = test: Parental Ba/F3 cell proliferation (CellTiter Glo); conditions: Mus musculus, parental BaF/3 cells, 48 hours
Method: as §2, §6

Row | IC50 (BaF3-KRASD12) [µM] | IC50 (BaF3-NRASD12) [µM] | Compound | GI50 (BaF3-BCR/ABL) [µM] | GI50 (BaF3-BCR/ABL-T315I) [µM] | GI50 (BaF3-EML4-ALK) [µM] | GI50 (BaF3-TEL-LYN) [µM] | GI50 (BaF3-TEL-TIE1) [µM] | IC50 (Wt-BaF3) [µM]
1 | 10.1 | 5.22 | Cc1ccc(NC(=O)c2cccc(C(F)(F)F)c2)cc1N1Cc2cnc(NC3CCN(C)CC3)nc2N(C)C1 [IA-1, N-(4-methyl-3-(1-methyl-7-((1-methylpiperidin-4-yl)amino)-1,4-dihydropyrimido[4,5-d]pyrimidin-3(2H)-yl)phenyl)-3-(trifluoromethyl)benzamide] | 4.28 | 4.15 | 1.53 | ~2.79 | 1.75 | 8.83
2 | 6.47 | 11.5 | CNc1ncc2c(n1)N(C)CN(c1cc(NC(=O)c3cccc(C(F)(F)F)c3)ccc1C)C2 [IA-3, N-(4-methyl-3-(1-methyl-7-(methylamino)-1,4-dihydropyrimido[4,5-d]pyrimidin-3(2H)-yl)phenyl)-3-(trifluoromethyl)benzamide] | 1.04 | > 10 | 6.34 | 4.09 | 5.47 | 12.5
3 | 8.33 | 9.56 | Cc1ccc(NC(=O)c2cccc(C(F)(F)F)c2)cc1N1Cc2cnc(NC3CC3)nc2N(C)C1 [IA-4, N-(3-(7-(cyclopropylamino)-1-methyl-1,4-dihydropyrimido[4,5-d]pyrimidin-3(2H)-yl)-4-methylphenyl)-3-(trifluoromethyl)benzamide] | 0.956 | 9.72 | 6.79 | 1.32 | 4.97 | 11.3
4 | 3.44 | 3.29 | Cc1ccc(NC(=O)c2cccc(C(F)(F)F)c2)cc1N1Cc2cnc(NCCN3CCOCC3)nc2N(C)C1 [IA-5, N-(4-methyl-3-(1-methyl-7-((2-morpholinoethyl)amino)-1,4-dihydropyrimido[4,5-d]pyrimidin-3(2H)-yl)phenyl)-3-(trifluoromethyl)benzamide] | 1.72 | 2.92 | 4.05 | 2.14 | 3.24 | 6.3
5 | 5.53 | 5.5 | Cc1ccc(NC(=O)c2cccc(C(F)(F)F)c2)cc1N1Cc2cnc(NCCc3c[nH]cn3)nc2N(C)C1 [IA-6, N-(3-(7-((2-(1H-imidazol-4-yl)ethyl)amino)-1-methyl-1,4-dihydropyrimido[4,5-d]pyrimidin-3(2H)-yl)-4-methylphenyl)-3-(trifluoromethyl)benzamide] | 2.22 | 4.45 | ~3.36 | ~3.21 | 3.7 | 5.14
6 | 8.1 | 8.28 | Cc1ccc(NC(=O)c2cccc(C(F)(F)F)c2)cc1N1Cc2cnc(N[C@H](C)CO)nc2N(C)C1 [IA-7, (R)—N-(3-(7-((1-hydroxypropan-2-yl)amino)-1-methyl-1,4-dihydropyrimido[4,5-d]pyrimidin-3(2H)-yl)-4-methylphenyl)-3-(trifluoromethyl)benzamide] | 0.665 | > 10 | 7.47 | 4.48 | 4.22 | 24.4
7 | 7.57 | 5.21 | Cc1ccc(NC(=O)c2cccc(C(F)(F)F)c2)cc1N1Cc2cnc(N[C@@H](C)CO)nc2N(C)C1 [IA-8, (S)—N-(3-(7-((1-hydroxypropan-2-yl)amino)-1-methyl-1,4-dihydropyrimido[4,5-d]pyrimidin-3(2H)-yl)-4-methylphenyl)-3-(trifluoromethyl)benzamide] | 1.94 | > 10 | 9.22 | 2.5 | 3.65 | 17.9
8 | 1.46 | 1.53 | Cc1ccc(NC(=O)c2cccc(C(F)(F)F)c2)cc1N1Cc2cnc(Nc3ccc(N4CCN(C)CC4)nc3)nc2N(C)C1 [IA-14, N-(4-methyl-3-(1-methyl-7-((6-(4-methylpiperazin-1-yl)pyridin-3-yl)amino)-1,4-dihydropyrimido[4,5-d]pyrimidin-3(2H)-yl)phenyl)-3-(trifluoromethyl)benzamide] |  |  |  |  |  | 3.67
9 | 1.69 | 1.57 | Cc1ccc(Nc2ncc3c(n2)N(C)CN(c2cc(C(=O)Nc4cccc(C(F)(F)F)c4)ccc2C)C3)cn1 [IC-1, 4-methyl-3-(1-methyl-7-((6-methylpyridin-3-yl)amino)-1,4-dihydropyrimido[4,5-d]pyrimidin-3(2H)-yl)-N-(3-(trifluoromethyl)phenyl)benzamide] | 0.00693 | 0.196 | 1.65 | 0.189 | 0.0912 | 5.36
10 |  |  | Cc1ccc(Nc2ncc3c(n2)N(C)CN(c2cc(NC(=O)c4cccc(C(F)(F)F)c4)ccc2Cl)C3)cn1 [IC-7, N-(4-chloro-3-(1-methyl-7-((6-methylpyridin-3-yl)amino)-1,4-dihydropyrimido[4,5-d]pyrimidin-3(2H)-yl)phenyl)-3-(trifluoromethyl)benzamide] | 9 | > 10 | 9.73 | 5.34 | 6.85 | 
11 |  |  | CN1CN(c2ccc(Cl)c(C(F)(F)F)c2)Cc2cnc(Nc3ccc(N4CCOCC4)nc3)nc21 [ID-1, 6-(4-chloro-3-(trifluoromethyl)phenyl)-8-methyl-N-(6-morpholinopyridin-3-yl)-5,6,7,8-tetrahydropyrimido[4,5-d]pyrimidin-2-amine] |  | > 10 | > 10 | > 10 | > 10 | 
12 |  |  | CN1CN(c2ccc(F)c(Cl)c2)Cc2cnc(Nc3ccc(N4CCOCC4)nc3)nc21 [ID-2, 6-(3-chloro-4-fluorophenyl)-8-methyl-N-(6-morpholinopyridin-3-yl)-5,6,7,8-tetrahydropyrimido[4,5-d]pyrimidin-2-amine] | > 10 | > 10 | > 10 | 20.5 | 11.8 | 
13 |  |  | CN1CN(c2ccc(Br)cc2F)Cc2cnc(Nc3ccc(N4CCOCC4)nc3)nc21 [ID-3, 6-(4-bromo-2-fluorophenyl)-8-methyl-N-(6-morpholinopyridin-3-yl)-5,6,7,8-tetrahydropyrimido[4,5-d]pyrimidin-2-amine] | > 10 | > 10 | 20 | 7.27 | 4.55 | 
14 |  |  | Cc1ccc(C(F)(F)F)cc1N1Cc2cnc(Nc3ccc(N4CCOCC4)nc3)nc2N(C)C1 [ID-4, 8-methyl-6-(2-methyl-5-(trifluoromethyl)phenyl)-N-(6-morpholinopyridin-3-yl)-5,6,7,8-tetrahydropyrimido[4,5-d]pyrimidin-2-amine] | 1.63 | > 10 | 8.24 | 4.29 | 4.43 | 
15 |  |  | CN1CN(c2cccc(C(F)(F)F)c2)Cc2cnc(Nc3ccc(N4CCOCC4)nc3)nc21 [ID-5, 8-methyl-N-(6-morpholinopyridin-3-yl)-6-(3-(trifluoromethyl)phenyl)-5,6,7,8-tetrahydropyrimido[4,5-d]pyrimidin-2-amine] |  | > 10 | > 10 | 15 | 6.17 | 
16 |  |  | Cc1ccc(N)cc1N1Cc2cnc(Nc3ccc(N4CCOCC4)nc3)nc2N(C)C1 [ID-6, 6-(5-amino-2-methylphenyl)-8-methyl-N-(6-morpholinopyridin-3-yl)-5,6,7,8-tetrahydropyrimido[4,5-d]pyrimidin-2-amine] | 0.353 | > 10 | > 10 | 2.31 | 0.809 | 
